Test results from patent US20250326713A1, “INHIBITORS OF MsbA AS ANTIBIOTICS, PHARMACEUTICAL COMPOSITIONS, AND USES THEREOF” (priority 2022, published 2025).
Converted amounts (≈) assume the structure as drawn.

System: various strains of bacteria
Assay: Antimicrobial potency: bacterial growth inhibition by OD600 (Antibacterial assay 1, MITC95)
Type: cell-based, A. baumannii
Conditions: Acinetobacter baumannii, 20 h, lowest concentration giving >95% growth inhibition, CAMHB, 18-22 h
Experimental: The concentrations of compounds required to inhibit the growth of various strains of bacteria were determined in an assay that assessed bacterial growth by measuring optical density at 600 nm (OD600). Test articles were dissolved in 100% DMSO and serially diluted two-fold from their maximal concentration in 100% DMSO. Forty-nine μl of bacterial inoculum (at approx. 2×10^5 cfu/mL in CAMHB) were put into wells of an assay plate. One μl of compound or DMSO was transferred from the source plate to the assay plate. The completed assay plates were then incubated at 35+2degC for 18-22 h. Bacterial growth was measured by reading OD600 on a spectrophotometer. Data analysis calculates the lowest concentration of compound which results in >95% growth inhibition (minimum inhibitory threshold concentration 95%, MITC95).

Row | MIC | Structure (SMILES)
1 | 0.0346 µM (≈ 0.0288 µg/mL) | O=C(O)c1cc(CN2CC(Oc3ccc(NS(=O)(=O)c4ccc(-c5ccc(Cl)cc5)cc4)c(C(=O)O)c3)C2)ccc1NS(=O)(=O)c1cnn(-c2ccc(F)cc2)c1 [Compound 104]
2 | 0.0978 µM (≈ 0.079 µg/mL) | O=C(O)c1cc(CN2CC(Oc3ccc(NS(=O)(=O)c4coc(-c5ccc(F)cc5)n4)c(C(=O)O)c3)C2)ccc1NS(=O)(=O)c1coc(-c2ccc(F)cc2)n1 [Compound 116]
3 | 0.0245 µM (≈ 0.0195 µg/mL) | O=C(O)c1cc(CN2CC(Oc3ccc(NS(=O)(=O)c4ccc(-c5ccc(F)cc5)cc4)c(C(=O)O)c3)C2)ccc1NS(=O)(=O)CCc1ccc(Cl)cc1 [Compound 99, 5-((1-(3-carboxy-4-((2-(4-chlorophenyl)ethyl)sulfonamido)benzyl)azetidin-3-yl)oxy)-2-((4′-fluoro-[1, l′-biphenyl])-4-sulfonamido)benzoic acid]
4 | < 0.0488 µM | O=C(O)c1cc(COC2CC(OCc3ccc(NS(=O)(=O)c4ccc(-c5ccc(F)cc5)cc4)c(C(=O)O)c3)C2)ccc1NS(=O)(=O)CCc1ccc(Cl)cc1 (stereo not drawn) [Compound 16]
5 | 0.0489 µM (≈ 0.0405 µg/mL) | Cn1nc(-c2ccccc2)cc1S(=O)(=O)Nc1ccc(CN2CC(Oc3ccc(NS(=O)(=O)c4ccc(-c5ccc(Cl)cc5)cc4)c(C(=O)O)c3)C2)cc1C(=O)O [Compound 106]
6 | 0.0122 µM (≈ 0.0106 µg/mL) | O=C(O)c1cc(OC[C@H]2C[C@@H](NCc3ccc(NS(=O)(=O)N4CC(Oc5ccc(F)cc5)C4)c(C(=O)O)c3)C2)ccc1NS(=O)(=O)c1cnc(-c2ccc(Cl)cc2)s1 [Compound 96]
7 | 0.0489 µM (≈ 0.038 µg/mL) | O=C(O)c1cc(CN2CC(Oc3ccc(NS(=O)(=O)c4ccc(-c5ccc(F)cc5)cc4)c(C(=O)O)c3)C2)ccc1NS(=O)(=O)CCc1ccc(F)cc1 [Compound 102]
8 | 0.391 µM (≈ 0.348 µg/mL) | CC1(Oc2ccc(NS(=O)(=O)N3CCOC(c4ccc(Cl)cc4)C3)c(C(=O)O)c2)CN(Cc2ccc(NS(=O)(=O)N3CCOC(c4ccc(Cl)cc4)C3)c(C(=O)O)c2)C1 (stereo not drawn) [Compound 46]
9 | 0.277 µM (≈ 0.241 µg/mL) | O=C(O)c1cc(OC[C@H]2C[C@H](Oc3ccc(NS(=O)(=O)c4cnn(-c5ccc(Cl)cc5)c4)c(C(=O)O)c3)CN2)ccc1NS(=O)(=O)c1cnn(-c2ccc(Cl)cc2)c1 [Compound 24, trans-5-((5-((3-carboxy-4-((1-(4-chlorophenyl)-1H-pyrazole)-4-sulfonamido)-phenoxy)methyl)pyrrolidin-3-yl)oxy)-2-((1-(4-chlorophenyl)-1H-pyrazole)-4-sulfonamido)benzoic acid]
10 | 0.0346 µM (≈ 0.0317 µg/mL) | O=C(O)c1cc(OC[C@H]2CC[C@@H](COc3ccc(NS(=O)(=O)c4ccc(-c5ccc(Cl)cc5)s4)c(C(=O)O)c3)O2)ccc1NS(=O)(=O)c1ccc(-c2ccc(Cl)cc2)s1 [Compound 23]
11 | 0.0691 µM (≈ 0.0544 µg/mL) | O=C(O)c1cc(OC2CN(Cc3ccc(NS(=O)(=O)N4CCOC(c5ccc(F)cc5)C4)c(C(=O)O)c3)C2)ccc1NS(=O)(=O)CCc1ccc(F)cc1 (stereo not drawn) [Compound 84]
12 | 0.0173 µM (≈ 0.015 µg/mL) | Cn1nc(-c2ccc(F)cc2)cc1S(=O)(=O)Nc1ccc(CN[C@H]2C[C@@H](COc3ccc(NS(=O)(=O)c4cnn(-c5ccc(Cl)cc5)c4)c(C(=O)O)c3)C2)cc1C(=O)O [Compound 91]
13 | 0.0245 µM (≈ 0.0198 µg/mL) | O=C(O)c1cc(CN2CC(Oc3ccc(NS(=O)(=O)c4cnn(-c5ccc(F)cc5)n4)c(C(=O)O)c3)C2)ccc1NS(=O)(=O)c1cnn(-c2ccc(F)cc2)n1 [Compound 118]
14 | 0.0692 µM (≈ 0.059 µg/mL) | O=C(O)c1cc(COC2CN(Cc3ccc(NS(=O)(=O)c4cnn(-c5ccc(Cl)cc5)c4)c(C(=O)O)c3)C2)ccc1NS(=O)(=O)c1cnn(-c2ccc(Cl)cc2)c1 [Compound 37, 5-(((1-(3-carboxy-4-(1-(4-chlorophenyl)-1H-pyrazole-4-sulfonamido)benzyl)azetidin-3-yl)oxy)methyl)-2-(1-(4-chlorophenyl)-1H-pyrazole-4-sulfonamido)benzoic acid]
15 | 0.782 µM (≈ 0.571 µg/mL) | O=C(O)c1cc(CN2CC(Oc3ccc(NS(=O)(=O)CCc4ccc(F)cc4)c(C(=O)O)c3)C2)ccc1NS(=O)(=O)CCc1ccc(F)cc1 [Compound 78, 5-((1-(3-carboxy-4-((2-(4-fluorophenyl)ethyl)sulfonamido)benzyl)azetidin-3-yl)oxy)-2-((2-(4-fluorophenyl)ethyl)sulfonamido)benzoic acid]
16 | 0.0245 µM (≈ 0.0194 µg/mL) | O=C(NCc1ccc(Cl)cc1)C(=O)Nc1ccc(OC2CN(Cc3ccc(NS(=O)(=O)c4cnn(-c5ccc(Cl)cc5)c4)c(C(=O)O)c3)C2)cc1C(=O)O [Compound 58]
17 | 0.00865 µM (≈ 0.00717 µg/mL) | O=C(O)c1cc(CN[C@H]2C[C@@H](COc3ccc(NS(=O)(=O)c4cnc(-c5ccc(Cl)cc5)s4)c(C(=O)O)c3)C2)ccc1NS(=O)(=O)CCc1ccc(F)cc1 [Compound 90]
18 | 0.0245 µM (≈ 0.0209 µg/mL) | O=C(O)c1cc(OC[C@H]2CC[C@@H](COc3ccc(NS(=O)(=O)c4cnn(-c5ccc(F)cc5)n4)c(C(=O)O)c3)O2)ccc1NS(=O)(=O)c1cnn(-c2ccc(F)cc2)n1 [Compound 20]
19 | < 0.0488 µM | O=C(NCc1ccccc1)C(=O)Nc1ccc(OC2CN(Cc3ccc(NS(=O)(=O)c4ccc(-c5ccc(Cl)cc5)cc4)c(C(=O)O)c3)C2)cc1C(=O)O [Compound 62]
20 | 0.0489 µM (≈ 0.041 µg/mL) | O=C(O)c1cc(CN2CC(Oc3ccc(NS(=O)(=O)c4cnn(-c5ccc(Cl)cc5)c4)c(C(=O)O)c3)C2)ccc1NS(=O)(=O)c1cnn(-c2ccc(Cl)cc2)c1 [Compound 117]

Row | MIC | Structure (SMILES)
21 | 0.0978 µM (≈ 0.0782 µg/mL) | O=C(CCc1ccc(Cl)c(Cl)c1)Nc1ccc(OC2CN(Cc3ccc(NS(=O)(=O)c4cnn(-c5ccc(Cl)cc5)c4)c(C(=O)O)c3)C2)cc1C(=O)O [Compound 71]
22 | 0.277 µM (≈ 0.223 µg/mL) | O=C(O)c1cc(CN2CC(Oc3ccc(NS(=O)(=O)c4cnn(-c5ccc(F)cc5)c4)c(C(=O)O)c3)C2)ccc1NS(=O)(=O)c1cnn(-c2ccc(F)cc2)c1 [Compound 115, 5-((1-(3-carboxy-4-(1-(4-fluorophenyl)-1H-pyrazole-4-sulfonamido)benzyl)azetidin-3-yl)oxy)-2-(1-(4-fluorophenyl)-1H-pyrazole-4-sulfonamido)benzoic acid]
23 | 0.196 µM (≈ 0.158 µg/mL) | O=C(NCc1cccc(Cl)c1)C(=O)Nc1ccc(OC2CN(Cc3ccc(NS(=O)(=O)c4ccc(-c5ccc(Cl)cc5)cc4)c(C(=O)O)c3)C2)cc1C(=O)O [Compound 63]
24 | 0.31 µM (≈ 0.263 µg/mL) | O=C(CCCCC(c1ccccc1)c1ccccc1)Nc1ccc(OC2CN(Cc3ccc(NS(=O)(=O)c4cnn(-c5ccc(Cl)cc5)c4)c(C(=O)O)c3)C2)cc1C(=O)O [Compound 74]
25 | 0.0692 µM (≈ 0.0572 µg/mL) | O=C(O)c1cc(CN2CC(Oc3ccc(NS(=O)(=O)c4ccc(-c5ccc(F)cc5)cc4)c(C(=O)O)c3)C2)ccc1NS(=O)(=O)c1ccc(-c2ccc(F)cc2)cc1 [Compound 98]
26 | 0.0245 µM (≈ 0.0184 µg/mL) | O=C(Cc1cccc(Cl)c1)Nc1ccc(OC2CN(Cc3ccc(NS(=O)(=O)c4cc(-c5ccc(F)cc5)ns4)c(C(=O)O)c3)C2)cc1C(=O)O [Compound 67]
27 | 0.0245 µM (≈ 0.0191 µg/mL) | O=C(CCCc1ccc(Cl)cc1)Nc1ccc(OC2CN(Cc3ccc(NS(=O)(=O)c4cnn(-c5ccc(Cl)cc5)c4)c(C(=O)O)c3)C2)cc1C(=O)O [Compound 69]
28 | 0.0978 µM (≈ 0.0728 µg/mL) | O=C(CCCc1ccccc1)Nc1ccc(OC2CN(Cc3ccc(NS(=O)(=O)c4cnn(-c5ccc(Cl)cc5)c4)c(C(=O)O)c3)C2)cc1C(=O)O [Compound 72]
29 | 0.0489 µM (≈ 0.0378 µg/mL) | O=C(CCCCCc1ccccc1)Nc1ccc(OC2CN(Cc3ccc(NS(=O)(=O)c4cnn(-c5ccc(Cl)cc5)c4)c(C(=O)O)c3)C2)cc1C(=O)O [Compound 66]
30 | 0.0489 µM (≈ 0.0395 µg/mL) | O=C(O)c1cc(CN2CC(Oc3ccc(NS(=O)(=O)c4cnc(-c5ccc(F)cc5)o4)c(C(=O)O)c3)C2)ccc1NS(=O)(=O)c1cnc(-c2ccc(F)cc2)o1 [Compound 120]
31 | 0.0122 µM (≈ 0.0104 µg/mL) | O=C(O)c1cc(OC[C@H]2C[C@@H](NCc3ccc(NS(=O)(=O)N4CCOC(c5ccc(F)cc5)C4)c(C(=O)O)c3)C2)ccc1NS(=O)(=O)c1cnn(-c2ccc(F)cc2)c1 (stereo partly drawn) [Compound 88]
32 | 1.56 µM (≈ 1.3 µg/mL) | O=C(O)c1cc(CN[C@H]2C[C@@H](NCc3ccc(NS(=O)(=O)c4cnn(-c5ccc(F)cc5)c4)c(C(=O)O)c3)C2)ccc1NS(=O)(=O)c1cnn(-c2ccc(F)cc2)c1 [Compound 49]
33 | 0.246 µM (≈ 0.204 µg/mL) | O=C(O)c1cc(OC2CN(Cc3ccc(NS(=O)(=O)c4cnn(-c5ccc(F)cc5)c4)c(-c4nn[nH]n4)c3)C2)ccc1NS(=O)(=O)c1cnn(-c2ccc(F)cc2)c1 [Compound 114, 2-((1-(4-fluorophenyl)-1H-pyrazole)-4-sulfonamido)-5-((1-(4-((1-(4-fluorophenyl)-1H-pyrazole)-4-sulfonamido)-3-(2H-tetrazol-5-yl)benzyl)azetidin-3-yl)oxy)benzoic acid]
34 | 0.0245 µM (≈ 0.0209 µg/mL) | O=C(O)c1cc(COC2CC(OCc3ccc(NS(=O)(=O)c4ccc(-c5ccc(F)cc5)cc4)c(C(=O)O)c3)C2)ccc1NS(=O)(=O)c1ccc(-c2ccc(F)cc2)cc1 (stereo not drawn) [Compound 14]
35 | 0.196 µM (≈ 0.164 µg/mL) | O=C(O)c1cc(NCC2CC(NCc3ccc(NS(=O)(=O)N4CC(Oc5ccc(F)cc5)C4)c(C(=O)O)c3)C2)ccc1NS(=O)(=O)c1cnn(-c2ccc(F)cc2)c1 (stereo not drawn) [Compound 28]
36 | 0.0489 µM (≈ 0.0414 µg/mL) | Cn1nc(-c2ccc(F)cc2)cc1S(=O)(=O)Nc1ccc(CNC2CC(CNc3ccc(NS(=O)(=O)c4cnn(-c5ccc(F)cc5)c4)c(C(=O)O)c3)C2)cc1C(=O)O (stereo not drawn) [Compound 33]
37 | 0.0346 µM (≈ 0.0271 µg/mL) | O=C(O)c1cc(OC2CN(Cc3ccc(NS(=O)(=O)c4cnn(-c5ccc(Cl)cc5)c4)c(C(=O)O)c3)C2)ccc1NS(=O)(=O)CCc1ccc(F)cc1 [Compound 82]
38 | 0.0173 µM (≈ 0.0139 µg/mL) | O=C(O)c1cc(OC2CN(Cc3ccc(NS(=O)(=O)c4cnc(-c5ccc(Cl)cc5)s4)c(C(=O)O)c3)C2)ccc1NS(=O)(=O)CCc1ccc(F)cc1 [Compound 85]
39 | 0.0122 µM (≈ 0.01 µg/mL) | O=C(O)c1cc(COC2CC(OCc3ccc(NS(=O)(=O)c4ccc(-c5ccc(Cl)cc5)cc4)c(C(=O)O)c3)C2)ccc1NS(=O)(=O)CCc1ccc(F)cc1 (stereo not drawn) [Compound 18]
